According to ChEMBL document CHEMBL3352395, “Quantitative structure-activity relationship of antifungal activity of rosin derivatives” (2015):

Experiments:
Gloeophyllum trabeum = assay: Antifungal activity against Gloeophyllum trabeum after 3 to 5 days by paper disc method relative to 1227; type: functional
Trametes versicolor = assay: Antifungal activity against Trametes versicolor after 3 to 5 days by paper disc method relative to 1227; type: functional

Compound	Ratio (Gloeophyllum trabeum)	log(ratio) (Gloeophyllum trabeum)	Ratio (Trametes versicolor)	log(ratio) (Trametes versicolor)	inhibition zone (IZ) (Gloeophyllum trabeum) [mm]	inhibition zone (IZ) (Trametes versicolor) [mm]
CC(C)C1CC[C@H]2C(CC[C@@H]3[C@]2(C)CCC[C@@]3(C)C(=O)O)C1 (stereo not given in full)	36.36	1.5607	26.67	1.426	–	–
CC(C)C1CC[C@H]2C(CC[C@@H]3[C@]2(C)CCC[C@@]3(C)C(=O)OCC(O)CCl)C1 (stereo not given in full)	36.36	1.5607	26.67	1.426	–	–
CC(C)C1=CC23CC[C@@H]4[C@](C)(CCC[C@@]4(C)C(=O)O)[C@H]2CC1CC3C(=O)O (stereo not given in full)	36.36	1.5607	26.67	1.426	–	–
CC(C)C1=CC23CC[C@@H]4[C@](C)(CCC[C@@]4(C)C(=O)OCC(O)CCl)[C@H]2CC1CC3C(=O)OCC(O)CCl (stereo not given in full)	36.36	1.5607	26.67	1.426	–	–
CCOC(=O)[C@]1(C)CCC[C@@]2(C)[C@H]1CC=C1C=C(C(C)C)CC[C@@H]12	36.36	1.5607	26.67	1.426	–	–
CC(C)C1=CC2=CC[C@@H]3[C@](C)(CCC[C@@]3(C)C(=O)OCC(O)CCl)[C@H]2CC1 (stereo not given in full)	36.36	1.5607	26.67	1.426	–	–
CC(C)c1ccc2c(c1)CC[C@H]1[C@](C)(C(=O)OCC(O)CCl)CCC[C@]21C (stereo not given in full)	40.91	1.6118	30	1.4771	–	–
CC(C)C1CC[C@H]2C(CC[C@@H]3[C@]2(C)CCC[C@@]3(C)C(=O)OCC(O)C[N+](C)(C)C)C1 (stereo not given in full)	59.09	1.7715	53.33	1.727	–	–
CC[N+](CC)(CC)CC(O)COC(=O)[C@]1(C)CCC[C@@]2(C)[C@H]1CCC1CC(C(C)C)CC[C@@H]12 (stereo not given in full)	59.09	1.7715	56.67	1.7533	–	–
CC[N+](CC)(CC(O)COC(=O)[C@]1(C)CCC[C@@]2(C)[C@H]1CCC1CC(C(C)C)CC[C@@H]12)CC1CO1 (stereo not given in full)	59.09	1.7715	40	1.6021	–	–
CCN(CC)CC(O)COC(=O)[C@]1(C)CCC[C@@]2(C)[C@H]1CCC1CC(C(C)C)CC[C@@H]12 (stereo not given in full)	50	1.699	33.33	1.5229	–	–
CC(C)C1=CC2=CC[C@@H]3[C@](C)(CCC[C@@]3(C)C(=O)OCC(O)C[N+](C)(C)CC3CO3)[C@H]2CC1 (stereo not given in full)	63.64	1.8037	46.67	1.669	–	–
CC(C)c1ccc2c(c1)CC[C@H]1[C@](C)(C(=O)OCC(O)C[N+](C)(C)C)CCC[C@]21C (stereo not given in full)	81.82	1.9128	60	1.7782	–	–
CC[N+](CC)(CC)CC(O)COC(=O)[C@]1(C)CCC[C@]2(C)c3ccc(C(C)C)cc3CC[C@@H]12 (stereo not given in full)	81.82	1.9128	56.67	1.7533	–	–
CC(C)c1ccc2c(c1)CC[C@H]1[C@](C)(C(=O)OCC(O)CN(C)C)CCC[C@]21C (stereo not given in full)	68.18	1.8337	43.33	1.6368	–	–
CC(C)c1ccc2c(c1)CC[C@H]1[C@](C)(C(=O)OCC(O)C[N+](C)(C)CC3CO3)CCC[C@]21C (stereo not given in full)	77.27	1.888	50	1.699	–	–
CC(C)C1=CC23CC[C@@H]4[C@](C)(CCC[C@@]4(C)C(=O)OCC(O)C[N+](C)(C)C)[C@H]2CC1CC3C(=O)OCC(O)C[N+](C)(C)C (stereo not given in full)	81.82	1.9128	70	1.8451	–	–
CC[N+](CC)(CC)CC(O)COC(=O)C1CC2C[C@H]3C1(C=C2C(C)C)CC[C@@H]1[C@]3(C)CCC[C@@]1(C)C(=O)OCC(O)C[N+](CC)(CC)CC (stereo not given in full)	77.27	1.888	66.67	1.8239	–	–
CC(C)C1=CC23CC[C@@H]4[C@](C)(CCC[C@@]4(C)C(=O)OCC(O)CN(C)C)[C@H]2CC1CC3C(=O)OCC(O)CN(C)C (stereo not given in full)	59.09	1.7715	46.67	1.669	–	–
CC(C)C1=CC23CC[C@@H]4[C@](C)(CCC[C@@]4(C)C(=O)OCC(O)C[N+](C)(C)CC4CO4)[C@H]2CC1CC3C(=O)OCC(O)C[N+](C)(C)CC1CO1 (stereo not given in full)	77.27	1.888	60	1.7782	–	–
CC[N+](CC)(CC(O)COC(=O)C1CC2C[C@H]3C1(C=C2C(C)C)CC[C@@H]1[C@]3(C)CCC[C@@]1(C)C(=O)OCC(O)C[N+](CC)(CC)CC1CO1)CC1CO1 (stereo not given in full)	77.27	1.888	63.33	1.8016	–	–
CC(C)C1=CC2=CC[C@@H]3[C@](C)(CCC[C@@]3(C)C(=O)OCC(O)C[N+](C)(C)CC[N+](C)(C)CC(O)COC(=O)[C@]3(C)CCC[C@@]4(C)[C@H]3CC=C3C=C(C(C)C)CC[C@@H]34)[C@H]2CC1 (stereo not given in full)	72.73	1.8617	56.67	1.7533	–	–
CC[N+](CC)(CC)CC(O)COC(=O)C1C2C[C@H]3C(C=C2C(C)C)(CC[C@@H]2[C@]3(C)CCC[C@@]2(C)C(=O)OCC(O)C[N+](CC)(CC)CC)C1C(=O)OCC(O)C[N+](CC)(CC)CC.[Cl-].[Cl-].[Cl-] (stereo not given in full)	95.5	–	86.7	–	21	26
CC(C)C1=CC2=CC[C@@H]3[C@](C)(CCC[C@@]3(C)C(=O)O)[C@H]2CC1 [ABIETIC ACID]	36.36	1.5607	26.67	1.426	–	–
CC(C)c1ccc2c(c1)CC[C@H]1[C@](C)(C(=O)O)CCC[C@]21C [DEHYDROABIETIC ACID]	40.91	1.6118	30	1.4771	–	–
